# Patent US4820694A, “Modifications of 3-O-demethylmycinose in macrocin and lactenocin” (priority 1986, dated 1989)
# Like-named read-outs stand apart in the source and are kept apart here.
# What was measured:
# [1] = tested on: Streptococcus pneumoniae Park I; test: microbe, parasite or virus in culture; assay type: cell-based; details: Streptococcus pneumoniae
# Protocol: (§1) The MIC's in Table III were determined by standard agar-dilution assays. The MIC's in Table IV were obtained using conventional brothdilution microtiter tests.
# [2] = tested on: Staphylococcus aureus S13E; test: microbe, parasite or virus in culture; assay type: cell-based; details: Staphylococcus aureus, S13E
# Protocol: as §1
# [3] = tested on: Streptococcus pyogenes C203; test: protection of mice experimentally infected with S. pyogenes C203; assay type: in vivo; details: mice, mg/kg × 2, doses given 1 and 4 hours postinfection, read-out: ED50
# Summary of the method: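 Activity is given as ED50, the mg/kg dose (×2) protecting half of the mice infected with S. pyogenes C203. Compound was dosed 1 and 4 h after infection.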
# [4] = tested on: Mycoplasma gallisepticum 36H; test: broth-dilution microtiter MIC test; assay type: cell-based; details: Mycoplasmoides gallisepticum, 36H; broth-dilution microtiter; read-out: MIC
# Protocol: as §1
# [5] = tested on: Pasteurella multocida 40G; test: broth-dilution microtiter MIC test; assay type: cell-based; details: Pasteurella multocida, 40G
# Protocol: as §1
# Streptococcus sp. 19F = test: broth-dilution microtiter MIC test; assay type: cell-based; details: Streptococcus, SP.19F
# Protocol: as §1
# [6] = tested on: Pasteurella multocida 60A; test: broth-dilution microtiter MIC test; assay type: cell-based; details: Pasteurella multocida, 60A
# Protocol: as §1
# [7] = tested on: Staphylococcus aureus 19C; test: broth-dilution microtiter MIC test; assay type: cell-based; details: Staphylococcus aureus, 19C
# Protocol: as §1
# Mycoplasma hyorhinis 29E = test: broth-dilution microtiter MIC test; assay type: cell-based; details: Mycoplasma, 29E
# Protocol: as §1
# [8] = tested on: Mycoplasma gallisepticum 15E; test: broth-dilution microtiter MIC test; assay type: cell-based; details: Mycoplasmoides gallisepticum, 15E
# Protocol: as §1
# [9] = tested on: Pasteurella hemolytica 41D; test: broth-dilution microtiter MIC test; assay type: cell-based; details: Pasteurella, 41D
# Protocol: as §1
# [10] = tested on: Pasteurella multocida 68C; test: broth-dilution microtiter MIC test; assay type: cell-based; details: Pasteurella multocida, 68C
# Protocol: as §1
# [11] = tested on: Pasteurella multocida 22A; test: broth-dilution microtiter MIC test; assay type: cell-based; details: Pasteurella multocida, 22A
# Protocol: as §1
# [12] = tested on: Pasteurella multocida 17E; test: broth-dilution microtiter MIC test; assay type: cell-based; details: Pasteurella multocida, 17E
# Protocol: as §1
# Mycoplasma synoviae 40A = test: broth-dilution microtiter MIC test; assay type: cell-based; details: Mycoplasmopsis synoviae, 40A
# Protocol: as §1
# [13] = tested on: Mycoplasma gallisepticum 29C; test: broth-dilution microtiter MIC test; assay type: cell-based; details: Mycoplasmoides gallisepticum, 29C
# Protocol: as §1
# [14] = tested on: Pasteurella hemolytica 22C; test: broth-dilution microtiter MIC test; assay type: cell-based; details: Pasteurella, 22C
# Protocol: as §1
# [15] = tested on: Bordetella bronchiseptica; test: broth-dilution microtiter MIC test; assay type: cell-based; details: Bordetella bronchiseptica; broth-dilution microtiter; read-out: MIC
# Protocol: as §1
# [16] = tested on: Pasteurella hemolytica 23C; test: broth-dilution microtiter MIC test; assay type: cell-based; details: Pasteurella, 23C
# Protocol: as §1
# [17] = tested on: Mycoplasma hyopneumoniae S5972; test: broth-dilution microtiter MIC test; assay type: cell-based; details: Mesomycoplasma hyopneumoniae, S5972; broth-dilution microtiter; read-out: MIC
# Protocol: as §1
# [18] = tested on: Staphylococcus epidermidis 222; test: standard agar-dilution MIC assay; assay type: cell-based; details: Staphylococcus epidermidis, 222
# Protocol: as §1
# [19] = tested on: Staphylococcus aureus V41; test: standard agar-dilution MIC assay; assay type: cell-based; details: Staphylococcus aureus, V41
# Protocol: as §1
# [20] = tested on: Staphylococcus aureus X1.1; test: standard agar-dilution MIC assay; assay type: cell-based; details: Staphylococcus aureus, X1.1
# Protocol: as §1
# [21] = tested on: Haemophilus influenzae 76; test: standard agar-dilution MIC assay; assay type: cell-based; details: Haemophilus influenzae, 76
# Protocol: as §1
# [22] = tested on: Pseudomonas aeruginosa X239; test: standard agar-dilution MIC assay; assay type: cell-based; details: Pseudomonas aeruginosa, X239; agar-dilution; read-out: MIC
# Protocol: as §1
# [23] = tested on: Streptococcus pyogenes C203; test: standard agar-dilution MIC assay; assay type: cell-based; details: Streptococcus pyogenes, C203
# Protocol: as §1
# Escherichia coli EC14 = test: standard agar-dilution MIC assay; assay type: cell-based; details: agar-dilution, read-out: MIC
# Protocol: as §1
# [24] = tested on: Streptococcus Group D X66; test: standard agar-dilution MIC assay; assay type: cell-based; details: read-out: MIC
# Protocol: as §1
# [25] = tested on: Haemophilus influenzae C.L.; test: standard agar-dilution MIC assay; assay type: cell-based; details: Haemophilus influenzae
# Protocol: as §1
# [26] = tested on: Staphylococcus aureus X400; test: standard agar-dilution MIC assay; assay type: cell-based; details: Staphylococcus aureus, X400
# Protocol: as §1
# [27] = tested on: Streptococcus Group D 9960; test: standard agar-dilution MIC assay; assay type: cell-based; details: GROUPD9960, read-out: MIC
# Protocol: as §1
# [28] = tested on: Klebsiella pneumoniae X68; test: standard agar-dilution MIC assay; assay type: cell-based; details: Klebsiella pneumoniae, X68; agar-dilution; read-out: MIC
# Protocol: as §1
# [29] = tested on: Staphylococcus epidermidis EPI1; test: standard agar-dilution MIC assay; assay type: cell-based; details: Staphylococcus epidermidis, EPI1
# Protocol: as §1
smiles,measurement,setting,value
"CCC1OC(=O)CC(O)C(C)C(OC2OC(C)C(OC3CC(C)(O)C(O)C(C)O3)C(N(C)C)C2O)C(CC=O)CC(C)C(=O)C=CC(C)=CC1COC1OC(C)C2OC(=O)OC2C1OC (centres unmarked) [Compound 49, Macrocin-3'"",4'""-Carbonate Derivative]",MIC,"[1]; agar-dilution, read-out: MIC",0.12 µg/mL
same,MIC,[2],0.5 µg/mL
same,ED50,"[3]; C203, Oral",85.6 mg/kg
same,ED50,"[3]; C203, sc, Subcutaneous",1 mg/kg
same,MIC,[4],> 50 µg/mL
same,MIC,[5],25 µg/mL
same,MIC,Streptococcus sp. 19F,0.39 µg/mL
same,MIC,[6],25 µg/mL
same,MIC,[7],0.78 µg/mL
same,MIC,Mycoplasma hyorhinis 29E,0.78 µg/mL
same,MIC,[8],25 µg/mL
same,MIC,[9],50 µg/mL
same,MIC,[10],6.25 µg/mL
same,MIC,[11],25 µg/mL
same,MIC,[12],12.5 µg/mL
same,MIC,Mycoplasma synoviae 40A,0.195 µg/mL
same,MIC,[13],0.195 µg/mL
same,MIC,[14],50 µg/mL
same,MIC,[15],> 50 µg/mL
same,MIC,[16],25 µg/mL
same,MIC,[17],0.097 µg/mL
same,MIC,[18],0.25 µg/mL
same,MIC,[19],0.5 µg/mL
same,MIC,[20],0.5 µg/mL
same,MIC,[21],16 µg/mL
same,MIC,[22],> 128 µg/mL
same,MIC,"[23]; agar-dilution, read-out: MIC",0.12 µg/mL
same,MIC,Escherichia coli EC14,> 128 µg/mL
same,MIC,[24],1 µg/mL
same,MIC,[25],32 µg/mL
same,MIC,[26],1 µg/mL
same,MIC,[27],1 µg/mL
same,MIC,[28],> 128 µg/mL
same,MIC,[29],1 µg/mL
"CCC1OC(=O)CC(O)C(C)C(OC2OC(C)C(O)C(N(C)C)C2O)C(CC=O)CC(C)C(=O)C=CC(C)=CC1COC1OC(C)C2OC(=O)OC2C1OC (centres unmarked) [Compound 51, Lactenocin-3"",4""-Carbonate Derivative]",MIC,[1],0.25 µg/mL
same,MIC,[2],1 µg/mL
same,ED50,"[3]; C203, Oral",> 100 mg/kg
same,ED50,"[3]; C203, sc, Subcutaneous",1.1 mg/kg
same,MIC,[4],> 50 µg/mL
same,MIC,[5],3.12 µg/mL
same,MIC,Streptococcus sp. 19F,3.12 µg/mL
same,MIC,[6],6.25 µg/mL
same,MIC,[7],1.56 µg/mL
same,MIC,"Mycoplasma hyorhinis 29E; broth-dilution microtiter, read-out: MIC",3.2 µg/mL
same,MIC,[8],50 µg/mL
same,MIC,[9],12.5 µg/mL
same,MIC,[10],12.5 µg/mL
same,MIC,[11],6.25 µg/mL
same,MIC,[12],6.25 µg/mL
same,MIC,Mycoplasma synoviae 40A,0.78 µg/mL
same,MIC,[13],0.39 µg/mL
same,MIC,[14],12.5 µg/mL
same,MIC,[15],> 50 µg/mL
same,MIC,[16],25 µg/mL
same,MIC,[17],0.097 µg/mL
same,MIC,[18],0.5 µg/mL
same,MIC,[19],2 µg/mL
same,MIC,[20],1 µg/mL
same,MIC,[21],8 µg/mL
same,MIC,[22],> 128 µg/mL
same,MIC,[23],0.25 µg/mL
same,MIC,Escherichia coli EC14,> 128 µg/mL
same,MIC,[24],2 µg/mL
same,MIC,[25],8 µg/mL
same,MIC,[26],2 µg/mL
same,MIC,[27],2 µg/mL
same,MIC,[28],> 128 µg/mL
same,MIC,[29],1 µg/mL
